Source: PubChem BioAssay AID336 (DTP/NCI, 2004)
Where “and” joins values, the source holds several entries; their conditions need not be identical. Identical values can stand only once. Toxic doses and inconclusive results are not listed.

Test system: BDF1 mice, P388/VCR leukemia ip, median survival T/C
Experiment: NCI In Vivo Anticancer Drug Screen. Data for tumor model P388 Leukemia resistant to Vincristine; NSC 67574 (intraperitoneal) in B6D2F1 (BDF1) mice
Conditions: endpoint: median survival time, higher = longer survival
Method: The antitumor activity of compounds was measured in mice bearing transplantable tumors. Survival or tumor size were measured and the results are expressed as the measurement made in the treated group (T) divided by the measurement made in the vehicle treated control group (C). The tumor model used in this assay is P388 Leukemia resistant to Vincristine; NSC 67574 (intraperitoneal) in B6D2F1 (BDF1) mice

[1] = dose: 5.0 mg/kg/injection, schedule: Q01DX010 (ip), vehicle: saline
[2] = dose: 10.0 mg/kg/injection, schedule: Q01DX010 (ip), vehicle: saline
[3] = dose: 40.0 mg/kg/injection, schedule: Q01DX010 (ip), vehicle: saline
[4] = dose: 20.0 mg/kg/injection, schedule: Q01DX010 (ip), vehicle: saline
[5] = dose: 18.0 mg/kg/injection, schedule: Q01DX010 (ip), vehicle: saline
[6] = dose: 60.0 mg/kg/injection, schedule: Q01DX010 (ip), vehicle: saline
[7] = dose: 125.0 mg/kg/injection, schedule: Q01DX010 (ip), vehicle: saline
[8] = dose: 250.0 mg/kg/injection, schedule: Q01DX010 (ip), vehicle: saline
[9] = dose: 2.5 mg/kg/injection, schedule: Q01DX010 (ip), vehicle: saline

C[n+]1ccc(NC(=O)c2ccc(NC(=O)c3cccc(C(=O)Nc4ccc(C(=O)Nc5cc[n+](C)cc5)cc4)c3)cc2)cc1
T/C [1]: 100 % of control
T/C [2]: 107 % of control
T/C [3]: 166 % of control

COc1cc2cc3c4cc(OC)c(OC)cc4cc[n+]3c(C)c2cc1OC (tested in a mixture with another compound)
T/C (dose: 46.7 mg/kg/injection, schedule: Q04DX003 (ip), vehicle: alkali diluted with saline): 106 % of control
T/C (dose: 77.8 mg/kg/injection, schedule: Q04DX003 (ip), vehicle: alkali diluted with saline): 110 % of control
T/C (dose: 130.0 mg/kg/injection, schedule: Q04DX003 (ip), vehicle: alkali diluted with saline): 115 % of control
T/C (dose: 216.0 mg/kg/injection, schedule: Q04DX003 (ip), vehicle: alkali diluted with saline): 124 % of control

CC1CCOS(=O)O1 (centres undefined)
T/C [2]: 96 % of control
T/C [4]: 103 % of control
T/C [3]: 103 % of control

O=C(Nc1ccc(C2=NCCN2)cc1)c1ccc(C(=O)Nc2ccc(C3=NCCN3)cc2)c([N+](=O)[O-])c1
T/C (dose: 6.0 mg/kg/injection, schedule: Q01DX010 (ip), vehicle: saline): 103 % of control
T/C (dose: 8.0 mg/kg/injection, schedule: Q01DX010 (ip), vehicle: saline): 114 % of control
T/C (dose: 12.0 mg/kg/injection, schedule: Q01DX010 (ip), vehicle: saline): 111 % of control
T/C [5]: 104 % of control and 111 % of control

Clc1ncnc2nc[nH]c12
T/C (dose: 7.5 mg/kg/injection, schedule: Q01DX010 (ip), vehicle: saline): 96 % of control and 119 % of control
T/C (dose: 15.0 mg/kg/injection, schedule: Q01DX010 (ip), vehicle: saline): 92 % of control and 107 % of control
T/C (dose: 30.0 mg/kg/injection, schedule: Q01DX010 (ip), vehicle: saline): 107 % of control
T/C [6]: 92 % of control

c1ccc(CCSc2ncnc3nc[nH]c23)cc1
T/C (dose: 62.5 mg/kg/injection, schedule: Q01DX010 (ip), vehicle: saline): 88 % of control
T/C [7]: 88 % of control
T/C [8]: 96 % of control
T/C (dose: 500.0 mg/kg/injection, schedule: Q01DX010 (ip), vehicle: saline): 107 % of control

COC(=O)C[C@](O)(CCCC(C)(C)O)C(=O)O[C@@H]1C(OC)=C[C@]23CCCN2CCc2cc4c(cc2[C@H]13)OCO4
T/C (dose: 0.72 mg/kg/injection, schedule: Q04DX003 (ip), vehicle: acid diluted with saline): 100 % of control
T/C (dose: 1.2 mg/kg/injection, schedule: Q04DX003 (ip), vehicle: acid diluted with saline): 100 % of control
T/C (dose: 2.0 mg/kg/injection, schedule: Q04DX003 (ip), vehicle: acid diluted with saline): 98 % of control
T/C (dose: 3.33 mg/kg/injection, schedule: Q04DX003 (ip), vehicle: acid diluted with saline): 97 % of control

CC(C)[C@](O)(C(=O)OCC1=CC[N+]2([O-])CC[C@@H](O)[C@@H]12)[C@H](C)O (some centres undefined)
T/C (dose: 130.0 mg/kg/injection, schedule: Q01DX009 (ip), vehicle: water): 98 % of control
T/C (dose: 216.0 mg/kg/injection, schedule: Q01DX009 (ip), vehicle: water): 106 % of control
T/C (dose: 360.0 mg/kg/injection, schedule: Q01DX009 (ip), vehicle: water): 113 % of control
T/C (dose: 600.0 mg/kg/injection, schedule: Q01DX009 (ip), vehicle: water): 107 % of control

CCOC(=O)NP(=O)(N1CC1(C)C)N1CC1(C)C (centres undefined)
T/C (dose: 31.3 mg/kg/injection, schedule: Q01DX010 (ip), vehicle: saline): 117 % of control
T/C [7]: 185 % of control
T/C [8]: 246 % of control

O[C@H](CN1CC1)[C@@H](O)CN1CC1
T/C (dose: 0.13 mg/kg/injection, schedule: Q01DX010 (ip), vehicle: saline): 180 % of control and 200 % of control
T/C (dose: 0.25 mg/kg/injection, schedule: Q01DX010 (ip), vehicle: saline): 150 % of control and 241 % of control

CO[C@H]1Nc2c(ccc(C)c2O)C(=O)N2C=C(/C=C/C(N)=O)C[C@@H]12
T/C (dose: 151.0 micrograms/kg/injection, schedule: Q04DX003 (ip), vehicle: saline + alcohol): 113 % of control
T/C (dose: 360.0 micrograms/kg/injection, schedule: Q04DX003 (ip), vehicle: saline + alcohol): 122 % of control

Nc1nc2n[nH]nc2c(=O)[nH]1
T/C (dose: 25.0 mg/kg/injection, schedule: Q01DX010 (ip), vehicle: alkali diluted with saline): 155 % of control and 170 % of control
T/C (dose: 50.0 mg/kg/injection, schedule: Q01DX010 (ip), vehicle: alkali diluted with saline): 162 % of control and 191 % of control
T/C (dose: 100.0 mg/kg/injection, schedule: Q01DX010 (ip), vehicle: alkali diluted with saline): 170 % of control and 204 % of control
T/C (dose: 200.0 mg/kg/injection, schedule: Q01DX010 (ip), vehicle: alkali diluted with saline): 177 % of control and 204 % of control

COC(=O)Nc1nc2ccc(C(=O)c3cccs3)cc2[nH]1
T/C (dose: 21.6 mg/kg/injection, schedule: Q04DX003 (ip), vehicle: other): 151 % of control
T/C (dose: 36.0 mg/kg/injection, schedule: Q04DX003 (ip), vehicle: other): 242 % of control
T/C (dose: 60.0 mg/kg/injection, schedule: Q04DX003 (ip), vehicle: other): 189 % of control

CC1CN1P(=S)(N1CC1C)N1CC1C (centres undefined)
T/C (dose: 1.25 mg/kg/injection, schedule: Q01DX010 (ip), vehicle: saline): 93 % of control
T/C [9]: 96 % of control and 100 % of control
T/C [1]: 100 % of control
T/C [2]: 93 % of control and 107 % of control

COc1cc2c[n+](C)c3c4cc5c(cc4ccc3c2cc1OC)OCO5
T/C (dose: 43.2 mg/kg/injection, schedule: Q04DX003 (ip), vehicle: Klucel (hydroxypropylcellulose) (HPC)): 106 % of control
T/C (dose: 72.0 mg/kg/injection, schedule: Q04DX003 (ip), vehicle: Klucel (hydroxypropylcellulose) (HPC)): 108 % of control
T/C (dose: 120.0 mg/kg/injection, schedule: Q04DX003 (ip), vehicle: Klucel (hydroxypropylcellulose) (HPC)): 106 % of control
T/C (dose: 200.0 mg/kg/injection, schedule: Q04DX003 (ip), vehicle: Klucel (hydroxypropylcellulose) (HPC)): 109 % of control

COc1cccc2c1C(=O)c1c(O)c3c(c(O)c1C2=O)C[C@@](O)(C(=O)CO)C[C@@H]3OC1CC(N)C(O)C(C)O1 (some centres undefined)
T/C (dose: 1.44 mg/kg/injection, schedule: Q04DX003 (ip), vehicle: saline): 172 % of control
T/C (dose: 1.44 mg/kg/injection, schedule: Q04DX003 (ip), vehicle: water): 168 % of control
T/C (dose: 2.4 mg/kg/injection, schedule: Q04DX003 (ip), vehicle: saline): 188 % of control
T/C (dose: 2.4 mg/kg/injection, schedule: Q04DX003 (ip), vehicle: water): 159 % of control and 200 % of control
T/C (dose: 4.0 mg/kg/injection, schedule: Q04DX003 (ip), vehicle: saline): 169 % of control
T/C (dose: 4.0 mg/kg/injection, schedule: Q04DX003 (ip), vehicle: water): 155 % of control and 168 % of control
T/C (dose: 6.67 mg/kg/injection, schedule: Q04DX003 (ip), vehicle: saline): 182 % of control
T/C (dose: 6.67 mg/kg/injection, schedule: Q04DX003 (ip), vehicle: water): 100 % of control

O=C(Nc1ccc(C2=NCCN2)cc1)c1ccc(NC(=O)c2ccc(C3=NCCN3)cc2)cc1
T/C [5]: 104 % of control
T/C (dose: 27.0 mg/kg/injection, schedule: Q01DX010 (ip), vehicle: saline): 108 % of control
T/C [3]: 113 % of control
T/C [6]: 113 % of control

CS(=O)(=O)OCCCl
T/C (dose: 37.5 mg/kg/injection, schedule: Q01DX010 (ip), vehicle: saline): 95 % of control and 100 % of control
T/C (dose: 75.0 mg/kg/injection, schedule: Q01DX010 (ip), vehicle: saline): 95 % of control and 100 % of control

CS(=O)(=O)OCCN(CCOS(C)(=O)=O)c1ccc(N=O)cc1
T/C (dose: 0.5 mg/kg/injection, schedule: Q01DX010 (ip), vehicle: saline): 150 % of control
T/C (dose: 1.0 mg/kg/injection, schedule: Q01DX010 (ip), vehicle: saline): 150 % of control

O=c1[nH]cc(F)c(=O)[nH]1
T/C [9]: 155 % of control
T/C [2]: 200 % of control
T/C [4]: 116 % of control and 235 % of control
T/C (dose: 21.6 mg/kg/injection, schedule: Q04DX003 (ip), vehicle: saline): 154 % of control
T/C (dose: 36.0 mg/kg/injection, schedule: Q04DX003 (ip), vehicle: saline): 188 % of control
T/C (dose: 60.0 mg/kg/injection, schedule: Q04DX003 (ip), vehicle: saline): 252 % of control
T/C (dose: 100.0 mg/kg/injection, schedule: Q04DX003 (ip), vehicle: saline): 270 % of control

COC(=O)[C@@]12OC[C@]34[C@H]([C@@H](O)[C@@H]1O)[C@@]1(C)CC(=O)C(O)=C(C)[C@@H]1C[C@H]3OC(=O)[C@H](OC(=O)/C=C(\C)C(C)C)[C@@H]24
T/C (dose: 389.0 micrograms/kg/injection, schedule: Q01DX004 (ip), vehicle: saline + alcohol): 103 % of control
T/C (dose: 432.0 micrograms/kg/injection, schedule: Q01DX009 (ip), vehicle: saline + alcohol): 98 % of control
T/C (dose: 648.0 micrograms/kg/injection, schedule: Q01DX004 (ip), vehicle: saline + alcohol): 109 % of control
T/C (dose: 720.0 micrograms/kg/injection, schedule: Q01DX009 (ip), vehicle: saline + alcohol): 100 % of control
